The results in this text go back to ChEMBL document CHEMBL4052806, “Chemical constituents from the rare mushroom Calvatia nipponica inhibit the promotion of angiogenesis in HUVECs” (Bioorg Med Chem Lett, 2017).

Active and inactive are the calls of the source. The calls are words filed in the database; no cut-off is given here.

Data set [1] concerns HUVEC. The experiment in a line: Antiangiogenic activity in HUVEC assessed as inhibition of tube formation on matrigel after 24 hrs by Mayer's hematoxylin staining based light microscopy. To be noted: Homo sapiens. The data set is classed as functional, cell-based.
The test system of data set [2] is HUVEC. As to the kind of experiment: Cytotoxicity against HUVEC assessed as reduction in cell viability at 100 ug/ml after 24 hrs by MTT assay relative to control. The class given is cell-based. To be noted: human. On the technique in general: Formazan colour is commonly taken as a measure of viable cells.
Data set [3] has as its system HUVEC. The experiment in a line: Cytotoxicity against HUVEC assessed as reduction in cell viability after 24 hrs by MTT assay. The class given is cell-based. As to conditions: human.
Data set [4] concerns HUVEC. The experiment in a line: Cytotoxicity against HUVEC assessed as reduction in cell viability up to 12.5 ug/ml after 24 hrs by MTT assay. The data set is classed as cell-based. To be noted: human.
Data set [5] concerns the target T1, MAP kinase p38 (Homo sapiens) (UniProt O15264+Q15759+Q16539+P53778). As to the kind of experiment: Inhibition of p38 phosphorylation in HUVEC at 12.5 ug/ml after 24 hrs by Western blot analysis relative to control. (In general: Immunoblotting shows a protein as a band on a membrane.)
The target of data set [6] is T1, MAP kinase p38 (Homo sapiens). The experiment in a line: Inhibition of p38 phosphorylation in HUVEC at 6.25 ug/ml after 24 hrs by Western blot analysis relative to control.
The species named for data set [7] is Homo sapiens. The experiment in a line: Inhibition of ERK phosphorylation in HUVEC at 12.5 ug/ml after 24 hrs by Western blot analysis relative to control.
The test system of data set [8] is HUVEC. As to the kind of experiment: Antiangiogenic activity in HUVEC assessed as inhibition of tube formation on matrigel at 12.5 ug/ml after 24 hrs by Mayer's hematoxylin staining based light microscopy relative to control. The class given is functional. As to conditions: Homo sapiens.
In data set [9] the test system is HUVEC. As to the kind of experiment: Down regulation of VEGF expression in HUVEC at 6.25 ug/ml after 24 hrs by Western blot analysis relative to control. The data set is classed as functional, Homo sapiens.
The species entered for data set [10] is Homo sapiens. As to the kind of experiment: Inhibition of ERK phosphorylation in HUVEC at 6.25 ug/ml after 24 hrs by Western blot analysis relative to control.
The subject of data set [11] is HUVEC. The experiment in a line: Down regulation of VEGF expression in HUVEC at 12.5 ug/ml after 24 hrs by Western blot analysis relative to control. The data set is classed as functional, Homo sapiens.

For orientation: inhibition means how much of the control response was suppressed. In the case of `CNc1ccccc1C(=O)O`, in data set [1], the inhibition entry was “inactive”. Moreover, the Activity is 24.55% in data set [2], “Dose-dependent effect” in data set [3] and “Non-Toxic” in data set [4].

Consider `OCc1cc(O)cc(O)c1`, for which the inhibition entry in [1] was “inactive”. In addition, the Activity was 25.15% in data set [2], “Dose-dependent effect” in data set [3] and “Non-Toxic” in [4].

Turning to `O=C1NCc2c(O)cc(O)cc21`, the fold change (FC) was 0.71 in data set [5]; 0.87 in [6]; 0.9 in data set [7]; 0.9 in [9]; 1.05 in [10]; 0.72 in data set [11]. The inhibition at 12.5 µg/mL in data set [8] was 32.6%. For the same molecule, the results for the Activity in data set [2], in data set [3] and in data set [4] were 23.13%, “Dose-dependent effect” and “Non-Toxic”, respectively.

Regarding `CN(C)c1ccccc1C(=O)O`, the inhibition entry in data set [1] was “inactive”. In addition, the Activity is 25.82% in data set [2], “Dose-dependent effect” in [3] and “Non-Toxic” in [4].

As to `O=C1OCc2cc(O)cc(O)c21`, the inhibition entry in data set [1] was “inactive”.

Turning to `NC(=O)c1cccnc1` [NIACINAMIDE], the inhibition at 12.5 µg/mL in data set [8] was 11.3%. In addition, the figures for the Activity in data set [2], in data set [3] and in data set [4] were 6.07%, “Dose-dependent effect” and “Non-Toxic”, respectively.

In the case of `CC(=O)Nc1ccc(O)cc1` [ACETAMINOPHEN], in [8], the inhibition at 12.5 µg/mL worked out at 10.5%. For the same molecule, the Activity in data set [2] is 25.93%; in data set [3] it was “Dose-dependent effect”; in data set [4] it was “Non-Toxic”.
